Test results taken from patent publication US20250281485A1, “DIAGNOSIS AND/OR TREATMENT OF HEART FAILURE WITH PRESERVED EJECTION FRACTION” (UNIVERSITEIT MAASTRICHT, priority 2022, published 2025).
Read-outs that look alike come from different tables or passages of the source. One block for each molecule: values may come before it.

Columns and labels:
apo-sGC = target: T1, apo-sGC (Homo sapiens, UniProt Q02108+Q02153); test: pVASP/VASP concentration response in fresh P-WBC, sGC activator; format: cell-based
T1 construct: P-WBC is isolated after a 800g centrifugation and treated with sGCs or sGCa; endogenous in cells; host or cells: fresh human platelet-enriched white-blood-cell fraction (P-WBC) from healthy volunteers
T1 sequence (Q02153 1-619): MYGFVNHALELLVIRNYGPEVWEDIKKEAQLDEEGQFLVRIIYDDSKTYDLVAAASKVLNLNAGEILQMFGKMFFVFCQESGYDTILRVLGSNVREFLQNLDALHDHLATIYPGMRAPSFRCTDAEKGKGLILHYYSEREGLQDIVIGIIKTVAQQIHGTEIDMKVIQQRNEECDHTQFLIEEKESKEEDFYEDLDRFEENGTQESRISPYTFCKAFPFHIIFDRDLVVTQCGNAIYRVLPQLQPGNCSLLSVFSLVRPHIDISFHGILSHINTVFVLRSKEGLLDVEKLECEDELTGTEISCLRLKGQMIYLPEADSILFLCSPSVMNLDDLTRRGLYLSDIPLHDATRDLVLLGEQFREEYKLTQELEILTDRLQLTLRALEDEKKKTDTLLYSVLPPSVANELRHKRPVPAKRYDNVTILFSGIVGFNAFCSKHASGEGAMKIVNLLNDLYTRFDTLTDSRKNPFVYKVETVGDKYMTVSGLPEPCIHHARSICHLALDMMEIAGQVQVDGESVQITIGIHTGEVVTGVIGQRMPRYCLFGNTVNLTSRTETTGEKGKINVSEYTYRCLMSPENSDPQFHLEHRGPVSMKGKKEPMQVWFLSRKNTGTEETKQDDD
T1 sequence (Q02108 1-690): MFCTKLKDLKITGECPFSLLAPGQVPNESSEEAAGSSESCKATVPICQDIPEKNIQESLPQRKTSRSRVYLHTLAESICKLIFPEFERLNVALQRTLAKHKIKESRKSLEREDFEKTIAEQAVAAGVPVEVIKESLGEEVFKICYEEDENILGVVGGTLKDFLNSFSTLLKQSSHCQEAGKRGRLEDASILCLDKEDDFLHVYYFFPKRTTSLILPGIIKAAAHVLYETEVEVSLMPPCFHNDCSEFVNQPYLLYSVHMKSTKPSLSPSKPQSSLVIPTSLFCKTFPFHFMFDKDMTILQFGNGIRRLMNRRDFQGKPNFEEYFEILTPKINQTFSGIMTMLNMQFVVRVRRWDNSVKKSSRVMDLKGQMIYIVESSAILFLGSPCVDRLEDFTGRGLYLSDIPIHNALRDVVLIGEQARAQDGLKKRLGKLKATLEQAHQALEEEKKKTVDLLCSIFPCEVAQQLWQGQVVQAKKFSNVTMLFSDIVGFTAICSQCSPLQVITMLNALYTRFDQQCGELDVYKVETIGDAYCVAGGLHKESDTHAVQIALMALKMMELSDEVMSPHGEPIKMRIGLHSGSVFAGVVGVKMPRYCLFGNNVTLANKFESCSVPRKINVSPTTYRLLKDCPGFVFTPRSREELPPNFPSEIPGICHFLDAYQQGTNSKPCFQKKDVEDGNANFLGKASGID
Experimental: (§1) Human blood was collected from healthy volunteers after obtaining informed consent according to the Declaration of Helsinki. An ethical approval was granted by the FHML Research Ethics Committee of Maastricht University (FHML-REC/2022/055). Whole blood (WB) was collected by venipuncture in ACD-A tubes (sodium citrate: 22.0 g/L, dextrose 24.5 g/L, citric acid: 8.0 g/L). Centrifugations in various speeds (200 g, 400g, 600g, 800g) were performed for 10 minutes in 18 degrees Celsius (acceleration 1, deceleration 0). Plasma was collected and P-WBC was carefully isolated (500 μl). Cell counting was performed with the automated haematology analyzer Sysmex XP-300. Subsequently, P-WBC was diluted with the same volume of JNL-buffer (130 mM NaCl, 3 mM KCl, 9 mM NaHCO3, 0.81 mM KH2PO4, 0.9 mM MgCI2, 10 mM sodium citrate, 6 mM dextrose, 10 mM Tris base, 2 mM HEPES) pH 7.4. Thereafter, 20 μl of diluted P-WBC were further diluted 1:5 with JNL-buffer for the cell treatments. Cell suspensions were treated with BAY 41-2272 (30 μM) and BAY 58-2667 (10 μM) for 10 minutes at 37° C., and with riociguat and runcaciguat for 15 minutes; in some cases with 10 minutes pretreatment with IBMX. Samples were centrifuged for 10 minutes at 750 g. […]
(§2) All data are expressed as mean±standard error of mean (SEM) of at least three independent experiments. […]

HFpEF patients [1] = conditions: JAMA 2020; cited from earlier work
HFpEF patients [2] = conditions: JAMA 2020; cited from earlier work; remark: listed apart in the source
HFpEF patients [3] = conditions: JAMA 2013; cited from earlier work
sGC = target: T2, sGC (Homo sapiens, UniProt Q02108+Q02153); test: pVASP/VASP concentration response in fresh P-WBC, sGC stimulator; format: cell-based
T2 construct: P-WBC is isolated after a 800g centrifugation and treated with sGCs or sGCa; endogenous in cells; host or cells: fresh human platelet-enriched white-blood-cell fraction (P-WBC) from healthy volunteers
T2 sequence (Q02153 1-619): T1 sequence (Q02153 1-619)
T2 sequence (Q02108 1-690): T1 sequence (Q02108 1-690)
Experimental: as §1, §2

[4] = in the presence of 500 μM IBMX (FIG. 14D)

concentration at which pVASP response peaked (apo-sGC; [4]): 1 μM | concentration of maximum effect, pVASP concentration response curve (apo-sGC; without IBMX (FIG. 14B)): 100 μM
SMILES: C[C@H]([C@H](C(=O)Nc1cc([C@@H](CC(=O)O)C2CC2)ccc1Cl)c1ccc(Cl)cc1)C(F)(F)F [runcaciguat]

SMILES: COC(=O)Nc1c(N)nc(-c2nn(Cc3ccccc3F)c3ncc(F)cc23)nc1N [vericiguat, methyl N-[4,6-diamino-2-[5-fluoro-1-[(2-fluorophenyl)methyl]pyrazolo[3,4-b]pyridin-3-yl]pyrimidin-5-yl]carbamate]
trial outcome (HFpEF patients [1]): failed

SMILES: OC(CNc1nc(-c2cc(-c3ccon3)n(Cc3ccccc3F)n2)ncc1F)(C(F)(F)F)C(F)(F)F [Praliciguat]
trial outcome (HFpEF patients [2]): failed

SMILES: CCCc1nn(C)c2c(=O)[nH]c(-c3cc(S(=O)(=O)N4CCN(C)CC4)ccc3OCC)nc12 [sildenafil]
trial outcome (HFpEF patients [3]): failure

SMILES: COC(=O)N(C)c1c(N)nc(-c2nn(Cc3ccccc3F)c3ncccc23)nc1N [riociguat, Methyl N-[4,6-Diamino-2-[1-[(2-fluorophenyl)methyl]-1H-pyrazolo[3,4-b]pyridin-3-yl]-5-pyrimidinyl]-N-methyl-carbaminate]
concentration at which pVASP response peaked (sGC; [4]): 100 μM | concentration of maximum effect, pVASP concentration response curve (sGC; without IBMX (FIG. 14B)): > 100 μM
